Assay results: patent EP4471048A1, “PEPTIDE INHIBITORS OF INTERLEUKIN-23 RECEPTOR” (Zealand Pharma A/S, priority 2023, dated 2024)
pIC50: −log10 of the molar value.

What was measured:
human IL-23R = target: T1, human IL-23R (Homo sapiens, UniProt Q5VWK5); test: biochemical
T1 sequence (Q5VWK5 22-629): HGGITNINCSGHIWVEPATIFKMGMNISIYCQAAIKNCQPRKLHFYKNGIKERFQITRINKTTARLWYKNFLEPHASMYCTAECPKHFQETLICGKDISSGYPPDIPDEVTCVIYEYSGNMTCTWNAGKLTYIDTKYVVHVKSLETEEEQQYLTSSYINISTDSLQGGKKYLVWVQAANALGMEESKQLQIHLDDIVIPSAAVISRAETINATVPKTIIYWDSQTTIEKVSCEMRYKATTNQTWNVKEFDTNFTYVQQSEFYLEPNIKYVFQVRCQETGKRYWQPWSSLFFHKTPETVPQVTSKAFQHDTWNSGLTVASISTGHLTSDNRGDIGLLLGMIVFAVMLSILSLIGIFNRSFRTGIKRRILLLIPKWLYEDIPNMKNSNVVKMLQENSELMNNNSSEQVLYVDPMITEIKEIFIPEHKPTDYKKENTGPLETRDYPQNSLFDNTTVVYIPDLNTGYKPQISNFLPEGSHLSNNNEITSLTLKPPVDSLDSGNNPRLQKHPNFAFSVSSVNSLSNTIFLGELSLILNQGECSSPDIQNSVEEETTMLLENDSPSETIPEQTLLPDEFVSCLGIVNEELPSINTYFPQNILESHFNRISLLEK
How it was run: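 Membranes from HEK293 cells stably expressing Nluc-tagged human IL-23R were incubated 2 h at room temperature with test compound and a fluorophore-labelled tracer. After substrate addition, loss of BRET (TAMRA over luciferase emission) reported tracer displacement. A 4PL fit gave IC50 values.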

[1] = target: IL-23 mediated signalling (Homo sapiens, UniProt Q5VWK5); test: Functional inhibition of IL-23 mediated STAT3 signalling (phospho-STAT3 MSD) in DB cells; format: cell-based; details: DB cells, hIL-23 at EC80
How it was run: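 DB cells preincubated with inhibitor 15 min at 37 °C, then stimulated 90 min with EC80 human IL-23; lysate phospho-STAT3 measured by MSD electrochemiluminescence. Signal normalized to IL-23-alone and buffer controls; IC50 and maximal % inhibition from 4-parameter logistic fit.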

Compound: CC(C)C[C@]1(C)NC(=O)[C@H](Cc2ccc3ccccc3c2)NC(=O)[C@H](Cc2ccc(OCCN)cc2)NC(=O)[C@@H]2CCC(=O)N[C@H](CCCCNC(=O)CC[C@@H](C(=O)N[C@@H](CCN)C(=O)N[C@@H](Cc3cccnc3)C(N)=O)NC1=O)C(=O)N[C@@H]([C@@H](C)O)C(=O)N[C@@H](C(C)C)C(=O)N[C@@H](Cc1c[nH]c3ccccc13)C(=O)N[C@@H](CCC(N)=O)C(=O)N2 [Compound 1, [{d}K](1c)(6c)^†TVWQE(6c)[Y(2-aminoethoxy)][2-Nal][2-Me-Leu]E(1c)[Dab][3-(3-Pyridyl)-Ala]-[NH2]]
- % displacement (hIL-23R NIuc) (human IL-23R): 103%
- pIC50 (human IL-23R): 10.40
- pIC50 ([1]; SAR tables 2-1 to 2-7, read-out: IC50 (pSTAT3)): 9.64
- Emax ([1]; Table 3-2, maximal inhibitory response, read-out: hIL-23 (pSTAT3) antagonist % inhibition): 102%
